The results in this text go back to patent US11905268B2, “Anthranilic acid derivatives and their use in the treatment of human cancers” (UNIVERSITY OF CENTRAL FLORIDA RESEARCH FOUNDATION, INC., priority 2018, dated 2024).

The test system of data set [1] is L3.6pl cells. As to the kind of experiment: cells. Format: cell-based. To be noted: for IC50: Homo sapiens, L3.6pl; for L3.6pl MTC: maximum tolerated concentration where cells are >90% viable.
For data set [2], the system named is L3.6pl cells. As to the kind of experiment: Ant44 assay in L3.6pl cells. It counts as cell-based, human. To be noted: Table 9; Ant44 3 μM; ECx = y: x% effect at y μM. Here is the method:
For example, in the ANT44 assay an EC48=9 means that the PTI molecule at 9 μM was able to block 48% of the Ant44 entry into L3.6 pl human Pancreatic ductal adenocarcinoma cells after 72 h incubation time at 37° C. Another explanation, is that the PTI was able to disrupt […] of the intracellular trafficking of Ant44 that leads to toxicity. Recall a polyamine transport inhibitor can work at any one (or more than one) of the different steps involved in the multi-step polyamine import and intracellular trafficking process. Blocking the entering spermidine from reaching its intended intracellular target is another way in which these compounds may function.
(§1) The higher EC value denotes the compound is giving a relative % growth of L3.6 pl cells consistent with inhibiting either Ant44 uptake or blocking the uptake of the rescuing dose of spermidine. Alternatively these compounds may disrupting the intracellular trafficking of Ant44 and spermidine so they cannot reach their intended intracellular target.

For data set [3], the system named is L3.6pl cells. As to the kind of experiment: DFMO/Spd rescue assay in L3.6pl cells. It counts as cell-based, human. To be noted: for EC value in DFMO/Spd rescue assay: Table 9, ECx = y: x% effect at y μM. On the procedure:
In another example in the DFMO spermidine (Spd) rescue assay an EC38=8 means that the PTI molecule at 8 μM was able to block 38% of the entry of spermidine into DFMO treated L3.6 pl cells after 72 h incubation time at 37° C. Another explanation, is that the PTI was able to disrupt […] of the intracellular trafficking of Spd that leads to cell rescue. […] Since both Ant44 and Spermidine are polyamine-based systems, cells likely use one mode of the polyamine transport (basal or obligate) in each assay.
as §1

For data set [4], the system named is CHO cells. Kind of data set: Cytotoxicity screen in CHO cells. The conditions noted are these: for IC50 at 48 h: Chinese hamster, CHO K1 cells. On the procedure:
CHO K1 cells were grown in growth medium to 70% confluency and washed in PBS and trypsinized. […] Cells were spun at 100×g for 1 minute and incubated at 37° C. in a humidified CO2 incubator for 24 hours. […] Cellular ATP content was then assayed by adding 3 uL of ATPLite with a Beckman BioRAPTR FRD dispenser and incubated for 10 minutes at room temperature. Plates were spun at 200×g for 1 minute and read on a Perkin Elmer Viewlux multimode plate reader using luminescence mode. This assay was used for testing dose-response of dry powders.
CHO K1 cells were grown in growth medium to 70% confluency and washed in PBS and trypsinized. Cells were plated in assay medium at 10000 cells/mL for 200 cells per well using a Thermo Multidrop Combi in 20 uL into a white Greiner plate. Cells were spun at 100×g for 1 minute and incubated at 37° C. in a humidified CO2 incubator for 24 hours. […] This was followed by adding by 10 μL of assay medium to all wells with a Beckman BioRAPTR FRD dispenser. The plates were spun at 200×g for 1 minute and incubated at 37° C. in a humidified 5% CO2 incubator for 48 hours. Cellular ATP content was then assayed by adding 20 μL of ATPLite with a Beckman BioRAPTR FRD dispenser and incubated for 10 min at room temperature. Plates were spun at 200×g for 1 minute and read on a Perkin Elmer Envision for multimode plate reader using luminescence mode. Duplicates were run for each compound concentration, and the curves represent the average of the duplicates as percent viability.
The final compound concentration was either 20 μM or 10 μg/mL (depending upon the compound source). A successful PTI in Assay 1 would block the uptake of the toxic Ant44 probe and rescue the cells back to >90% relative growth vs an untreated control. It was critical to also evaluate the toxicity of the PTI by itself as a toxic PTI would give a false negative in Assay1 (and a false positive in Assay 2). […] Assay 2 then evaluated the ability of the compound to inhibit the uptake of a rescuing dose of Spermidine (Spd, 1 μM) into DFMO-treated CHO cells.

In data set [5] the test system is CHO cells. As to the kind of experiment: Ant44 rescue assay in CHO cells (Assay 1). It counts as cell-based, Chinese hamster. To be noted: for IC50: Cricetulus griseus, CHO, Table 7, read-out: SAR IC50 Ant44 assay. Here is the method: CHO K1 cells were grown in growth medium (RPMI+10% FBS+1×P/S+1% l-glutamine) to 70% confluency, washed in PBS and trypsinized. Cells were plated in assay medium (serum free RPMI+2% FBS+1×l-glutamine+1×P/S+[…] aminoguanidine) at 50000 cells/mL for 200 cells per well in 4 ul using a Thermo Multidrop Combi into a 1536-well white Aurora plate.
Ant44 is a cytotoxic polyamine, i.e., N^1-(9-anthracenyl)-homospermidine. A non-toxic PTI compound would block entry or intracellular trafficking of the Ant44 toxin and rescue the cells back to high viability. Therefore, this screen tested for compounds which rescued cells from Ant44 toxicity. […] This was followed by adding 10 uL of 10 uM Ant44 (FAC 2 uM) in assay medium with a Beckman BioRAPTR FRD dispenser or 10 uL of cells added in assay medium (positive control).

In data set [6] the test system is DFMO treated Chinese hamster ovary (CHO) cells. As to the kind of experiment: DFMO/spermidine rescue assay in CHO cells (Assay 2). It counts as cell-based. On the procedure: In the reconfirmation assay compounds were run in quadruplicate. […] A PTI compound is expected to block the entry or disrupt the intracellular trafficking of spermidine and inhibit the ability of spermidine to rescue the growth or viability of DFMO treated cells.
DFMO/Spermidine assay Here cells were treated with an inhibitor of polyamine biosynthesis (DFMO) and rescued back to high viability by the presence of exogenous polyamine (spermidine). Putative PTI compounds were screened for their ability to block the entry or intracellular trafficking of exogenous spermidine (or otherwise disrupt the intracellular trafficking of spermidine) by measuring cell viability in the presence of DFMO+spermidine+PTI compound. […] This was followed by adding 10 μL of […] and 5 μM spermidine (FAC 5 mM DFMO and 1 μM spermidine) in assay medium with a Beckman BioRAPTR FRD dispenser or 10 μL of 5 mM DFMO added in assay medium (positive control). […] A PTI compound is expected to block the entry or disrupt the intracellular trafficking of spermidine and inhibit the ability of spermidine to rescue the growth or viability of DFMO treated cells Cytotoxicity

The mark [7] stands for this setting: 72 h, Table 9, read-out: 72 h IC50.
Setting [8] is: read-out: IC50 values (toxicity profile).
Where [9] appears, read: relative growth after 72 h, read-out: L3.6pl IC50.
The mark [10] stands for this setting: Cricetulus griseus, CHO, Table 7, read-out: SAR IC50 DFMO assay.

Read-outs that look alike come from different tables or passages of the source.

As for `O=C(Nc1ccc(F)cc1C(=O)O)c1ccco1`, the IC50 in the data set with L3.6pl cells [1] (setting [7]) was greater than 100 µM. Further, the MTD in the data set with L3.6pl cells [1] (Table 9) was greater than 100 µM. In addition, the “EC value in Ant44 (3 μM) assay” value in the data set with L3.6pl cells [2] is reported as “EC36 = 50 μM”. Further, in the data set on L3.6pl cells [3], the “EC value in DFMO/Spd rescue assay” value is listed as “EC67 = 100 μM”.

Regarding `COc1ccccc1C(=O)Nc1ccc(N2CCN(c3ccccc3)CC2)cc1C(=O)O` [ChemDiv F687-0884], the IC50 in the data set with L3.6pl cells [1] (setting [8]) is greater than 38 µM; in the data set with L3.6pl cells [1] (setting [9]) it was 46.3 ± 0.02 µM. In the data set on L3.6pl cells [1], the “L3.6pl MTC” value came to 9 µM.

As usually defined, the EC50 is the concentration that produces a half-maximal response. The low end stands for an effect from little substance, the high end for a need for much substance. With `COc1ccccc1C(=O)Nc1ccc(N2CCN(Cc3ccccn3)CC2)cc1C(=O)O` [SBI-0814421, 2-(2-methoxybenzamido)-5-(4-(pyridin-2-ylmethyl)piperazin-1-yl)benzoic acid], the IC50 at 48 h with CHO cells [4] is greater than 40 µM. Moreover, the “CHO MTD” value in the data set with CHO cells [4] (hamster) was greater than 20 µM. Moreover, the “L3.6pl MTD” value in the data set on L3.6pl cells [1] (Table 2) is 10 µM; in the data set on L3.6pl cells [1] (Table 4B) it was “(10) μM”. The IC50 was greater than 40 µM with CHO cells [5]; 9.5 µM in data set [6] (Cricetulus griseus, CHO, Table 4B, read-out: DFMO/CHO IC50); 10 µM in data set [6] (setting [10]). Besides, in the data set on CHO cells [5] (Table 2, in CHO), the “Active in Ant44 assay?” value is on record as “No in CHO”. Moreover, the EC50 in the data set with L3.6pl cells [3] (Homo sapiens, Table 2, DFMO rescue in L3.6pl) is greater than 10 µM; in the data set with L3.6pl cells [3] (Table 4B, DFMO-spermidine rescue), greater than 10 µM; in data set [6] (Cricetulus griseus, CHO, Table 2), 20 µM. For the same compound, in data set [6] (CHO cells), the “activity in DFMO assay” value is recorded as “some level of activity”.

As to `O=C(Nc1ccc(N2CCC(Oc3ccccc3)CC2)cc1C(=O)O)c1cccnc1`, in the data set on L3.6pl cells [1] (setting [7]), the IC50 was greater than 50 µM. Besides, the MTD in the data set with L3.6pl cells [1] (Table 9) was 10 µM. Also, in the data set on L3.6pl cells [2], the “EC value in Ant44 (3 μM) assay” value is “Not working”. Moreover, in the data set on L3.6pl cells [3], the “EC value in DFMO/Spd rescue assay” value is on record as “EC25 = 8 μM”.

In the case of `COc1ccccc1C(=O)Nc1ccc(N2CCN(c3cc(Cl)ccc3C)CC2)cc1C(=O)O` [drawing 136], the IC50 with L3.6pl cells [1] (setting [7]) amounted to 29.1 ± 0.03 µM. In the data set with L3.6pl cells [1] (Table 9), the MTD was greater than 5 µM. The “EC value in Ant44 (3 μM) assay” value with L3.6pl cells [2] was “not working as a PTI”. The “EC value in DFMO/Spd rescue assay” value in the data set with L3.6pl cells [3] was “EC29 = 5 μM”.

Take `COc1ccccc1C(=O)Nc1ccc(N2CCN(c3ccccc3OC)CC2)cc1C(=O)O` [ChemDiv F687-0882]: the values for the IC50 in the data set with L3.6pl cells [1] (setting [8]) and in the data set on L3.6pl cells [1] (setting [9]) were greater than 38 µM and greater than 50 µM, respectively. Besides, in the data set on L3.6pl cells [1], the “L3.6pl MTC” value came out at 9 µM.

In the case of `O=C(Nc1ccc(N2CCC(Oc3ccccc3)CC2)cc1C(=O)O)c1cc2ccccc2o1`, the IC50 with L3.6pl cells [1] (setting [7]) is 44.4 ± 0.04 µM. In the data set on L3.6pl cells [1] (Table 9), the MTD was 10 µM. In addition, the “EC value in Ant44 (3 μM) assay” value in the data set with L3.6pl cells [2] is “EC7 = 10 μM”. Further, the “EC value in DFMO/Spd rescue assay” value in the data set with L3.6pl cells [3] was “EC30 =10 μM”.

Regarding `Cl.O=C(Nc1ccc(N2CCNCC2)cc1C(=O)O)c1ccco1`, the IC50 in the data set with L3.6pl cells [1] (setting [7]) is greater than 50 µM. The MTD in the data set on L3.6pl cells [1] (Table 9) is 40 µM. The “EC value in Ant44 (3 μM) assay” value in the data set with L3.6pl cells [2] is given as “EC22 = 40 μM”. Moreover, the “EC value in DFMO/Spd rescue assay” value with L3.6pl cells [3] was “EC10 = 40 μM”.

As for `O=C(Nc1ccc(N2CCC(Oc3ccccc3)CC2)cc1C(=O)O)c1cc2ccccc2[nH]1`, in the data set with L3.6pl cells [1] (setting [7]), the IC50 was found to be 38.3 ± 0.04 µM. Also, the MTD with L3.6pl cells [1] (Table 9) came to 10 µM. For the same compound, the “EC value in Ant44 (3 μM) assay” value with L3.6pl cells [2] is reported as “not working as a PTI”. For the same compound, the “EC value in DFMO/Spd rescue assay” value with L3.6pl cells [3] is reported as “EC30 = 9 μM”.

Compound `COc1ccc(C(=O)Nc2ccc(N3CCN(c4cc(Cl)ccc4C)CC3)cc2C(=O)O)cc1` [SBI-0754479, 5-(4-(5-chloro-2-methylphenyl)piperazin-1-yl)-2-(4-methoxybenzamido)benzoic acid] came in with an IC50 at 48 h in the data set on CHO cells [4] of 13 µM. In addition, the IC50 with L3.6pl cells [1] (setting [9]) is 16.8 ± 0.1 µM; in the data set with CHO cells [5] it was greater than 40 µM; in data set [6] (setting [10]), 8 µM. Further, the “L3.6pl MTC” value with L3.6pl cells [1] was 8 µM.

As to `Cc1ccc(C(=O)Nc2ccc(N3CCN(c4cc(Cl)ccc4C)CC3)c(C(=O)O)c2)cc1` [SBI-0800669], the IC50 at 48 h in the data set on CHO cells [4] was found to be 12 µM. In addition, the “tox (DFMO Assay)” value with CHO cells [4] (toxic above the stated concentration, CHO cells, listed with DFMO assay) was greater than 10 µM. The IC50 in the data set on CHO cells [5] was greater than 40 µM; in data set [6] (setting [10]) it was 5 µM; in data set [6] (Cricetulus griseus, Table 1 HTS top hits, CHO cells, read-out: DFMO Assay IC50), 2 to 5 µM. Further, the “Ant44 EC50” value in the data set with CHO cells [5] (Table 1 HTS top hits, CHO cells) is reported as “SBI- 0800669.0001 No effect”.

In the data set with CHO cells [4], `COc1ccccc1C(=O)Nc1ccc(N2CCN(C(=O)c3ccccn3)CC2)cc1C(=O)O` [SBI-0814424, 2-(2-methoxybenzamido)-5-(4-picolinoylpiperazin-1-yl)benzoic acid] showed an IC50 at 48 h greater than 40 µM. Also, the IC50 (with CHO cells [5]; in data set [6] (setting [10])) was greater than 40 µM in each case.
